Measurements published in patent publication US4800194A, “Acylphosphorotriamides useful as lipid-altering agents” (priority 1986, dated 1989).

Tests used:
pseudocholinesterase = biological target: T1, pseudocholinesterase (Homo sapiens, UniProt P06276); test: Inhibition of human plasma pseudocholinesterase (PChE) activity (Test Method 1); assay type: biochemical; details: 30 min preincubation
T1 construct: a 100 μl aliquot of human plasma; from tissue; host or cells: human plasma (EDTA blood, stored frozen)
T1 sequence (P06276 29-602): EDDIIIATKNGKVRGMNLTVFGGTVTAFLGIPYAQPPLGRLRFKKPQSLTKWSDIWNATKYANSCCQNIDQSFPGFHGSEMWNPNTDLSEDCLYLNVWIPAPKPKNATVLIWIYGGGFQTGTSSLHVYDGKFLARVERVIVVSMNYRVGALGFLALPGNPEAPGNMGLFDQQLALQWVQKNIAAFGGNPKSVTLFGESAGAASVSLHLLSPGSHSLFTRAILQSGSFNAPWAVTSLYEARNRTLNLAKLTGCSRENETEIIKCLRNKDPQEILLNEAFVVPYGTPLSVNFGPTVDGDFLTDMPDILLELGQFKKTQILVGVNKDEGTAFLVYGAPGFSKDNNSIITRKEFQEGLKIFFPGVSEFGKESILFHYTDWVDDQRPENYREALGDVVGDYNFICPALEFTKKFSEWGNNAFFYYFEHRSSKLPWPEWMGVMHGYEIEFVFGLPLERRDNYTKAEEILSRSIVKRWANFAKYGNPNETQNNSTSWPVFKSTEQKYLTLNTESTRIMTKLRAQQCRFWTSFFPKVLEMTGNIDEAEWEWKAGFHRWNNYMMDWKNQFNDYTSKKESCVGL
Experimental: (§1) The following method was used to determine the relative inhibition of pseudocholinesterase and acetylcholinesterase by compounds of the present invention.
Plasma (Source of Pseudocholinesterase Enzyme)
Human Plasma was obtained from blood which was collected in ethylenediaminetetraacetic acid (EDTA) treated tubes. Collected plasma was stored frozen at -20° C. until use.
(§2) The buffer/chromogen solution was 0.25 mM 5,5'-dithiobis-[2-nitrobenzoic acid] (chromogen), 50 mM phosphate buffer, pH 7.2. In making up the buffer/chromogen solution and to keep it as colorless as possible, the phosphate buffer was first adjusted to pH 7.1 with NaOH; the chromogen was then added and dissolved; the pH was adjusted to 7.2; and the final volume was adjusted with addition of Milli-Q water. 5,5'-dithiobis-(2-nitrobenzoic acid) was obtained from Sigma Chemicals, St. Louis, MO.
(§3) The substrate solution for the pseudocholinesterase assay was 156 mM S-butyrylthiocholine iodide, and the substrate solution for the acetylcholinesterase assay was 156 mM S-acetylthiocholine iodide. Both substrate compounds were obtained from Sigma Chemicals.
(§4) Test Compound Stock Solutions
(§5) Solutions of all test compounds were made up at 2 μM, 20 μM, and 200 μM concentrations (in 0.9% saline solution) except as noted where lower concentrations were necessary because of decreased solubility of the compound in saline solution.
Pseudocholinesterase (PChE) Assay
In three separate tubes, a 100 μl aliquot of either 0.9% saline solution, 2 μM test compound solution, or 20 μM test compound solution was mixed with a 100 μl aliquot of human plasma, and the tubes were placed in a 35° C. water bath. Four cuvettes, each containing 3 ml buffer/chromogen solution mixed with 100 μl substrate solution (156 mM S-butyrylthiocholine iodide), had been placed in a heated cuvette holder (35° C.) in a Beckman DU-8B Spectrophotometer (Beckman Instruments). After the temperature of the buffer/chromogen/substrate solution in the cuvette had equilibrated for about 10 minutes, and after 0 or 30 minutes incubation of the plasma/test compound solution, a 25 μl aliquot of the plasma/test compound solutions was added to the corresponding cuvettes numbered 2-4. Cuvette #1 remained a blank. After mixing, the net absorbance of each cuvette was determined at 405 nm every 35 seconds for ten readings. From a plot of net absorbance versus time, the initial linear portion of the curve was determined, and a rate of absorbance change per minute was calculated. The positive control (100% PChE activity) was the plasma/saline solution.
(§6) Each compound was tested for its ability to inhibit plasma pseudocholinesterase activity and acetylcholinesterase activity. Because of variation in the time points in the linear portion of the curve, inhibition values below 10-15% and higher than 85-90% are nearly indistinguishable from 0% and 100%, respectively.

acetylcholinesterase = biological target: T2, acetylcholinesterase (Homo sapiens, UniProt P22303); test: Inhibition of acetylcholinesterase (AChE) activity of lysed human red blood cells (Test Method 1); assay type: biochemical; details: 60 min preincubation
T2 construct: The supernatant (lysed RBC's) was stored frozen; from tissue; host or cells: lysed human red blood cells (supernatant of hypotonic lysis)
T2 sequence (P22303 other isoform, or with tags, fused parts or gaps): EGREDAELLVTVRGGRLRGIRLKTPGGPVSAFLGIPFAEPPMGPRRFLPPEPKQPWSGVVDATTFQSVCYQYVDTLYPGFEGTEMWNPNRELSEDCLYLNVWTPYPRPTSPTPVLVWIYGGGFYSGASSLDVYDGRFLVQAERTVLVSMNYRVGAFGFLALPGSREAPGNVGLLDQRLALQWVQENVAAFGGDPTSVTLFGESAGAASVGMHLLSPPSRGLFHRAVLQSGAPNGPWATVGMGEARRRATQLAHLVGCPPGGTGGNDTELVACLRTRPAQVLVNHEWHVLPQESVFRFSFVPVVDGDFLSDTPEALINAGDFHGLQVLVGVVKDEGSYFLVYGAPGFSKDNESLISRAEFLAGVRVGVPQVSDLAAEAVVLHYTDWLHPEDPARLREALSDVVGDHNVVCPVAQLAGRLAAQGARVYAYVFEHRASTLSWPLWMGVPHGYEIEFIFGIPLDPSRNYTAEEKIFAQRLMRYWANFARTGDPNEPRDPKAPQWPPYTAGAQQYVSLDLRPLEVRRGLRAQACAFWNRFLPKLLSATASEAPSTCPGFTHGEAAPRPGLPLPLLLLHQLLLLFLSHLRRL
Experimental: as §1
Lysed Red Blood Cells (RBC's) (Source of Acetylcholinesterase Enzyme)
Human blood which was collected in EDTA treated tubes was centrifuged at 1500×g for 10 min. at 4° C. One volume of chilled 0.9% saline solution was gently mixed with one volume of packed RBC's. One volume of this suspension was then washed three times with ten volumes of chilled 0.9% saline solution (4° C.). Each wash was centrifuged at 1500×g for 10 min. at 4° C. and supernatant was discarded. After the last wash the supernatant was replaced with deionized, distilled water (treated by Milli-Q apparatus, Millipore Corp., Bedford, MA) (4° C.). After 15 min. at 4° C. the suspension was centrifuged at 1500×g for 10 min. at 4° C. The supernatant (lysed RBC's) was stored frozen at -20° C. until use.
as §2, §3, §4, §5
Acetylcholinesterase (AChE) Assay
The acetylcholinesterase assay was performed identically to the pseudocholinesterase assay with the following exceptions. The concentrations of the stock solutions of test compounds were 20 μM and 200 μM, instead of 2 μM and 20 μM, and the substrate solution was 156 mM S-acetylthiocholine iodide instead of S-butyrylthiocholine iodide. The lysed RBC's/test compound solution was incubated for 0 and 60 minutes instead of 0 and 30 minutes before being added to the cuvette containing the buffer/chromogen/substrate solution. From a plot of net absorbance versus time there was an initial period before the curve reached a steady linear rate. From this linear portion of the curve a rate of absorbance change per minute was calculated.
as §6

SMILES	inhibition at 1 µM (pseudocholinesterase) [%]	inhibition at 10 µM (pseudocholinesterase; 10 μM) [%]	inhibition at 10 µM (acetylcholinesterase) [%]	inhibition at 100 µM (acetylcholinesterase) [%]	further results
N#Cc1ccc(C(=O)NP(N)(N)=O)cc1 [Test Compound 12]	97.4	98.8	34.4	85.5	
Nc1ccc(C(=O)NP(N)(N)=O)cc1 [Test Compound 5]	57.7	98.2	1.8	32.1	
NP(N)(=O)NC(=O)c1cccc([N+](=O)[O-])c1 [Test Compound 7]	65.6	98.9	23.9	86.6	
NP(N)(=O)NC(=O)c1ccc(-c2ccccc2)cc1 [Test Compound 24]					inhibition at 0.25 µM (pseudocholinesterase; 0.25 μM (footnote b)): 5.3%; inhibition at 2.5 µM (pseudocholinesterase; 2.5 μM (footnote b)): 66.6%; inhibition at 2.5 µM (acetylcholinesterase; 2.5 μM (footnote b)): -3.7%; inhibition at 25 µM (acetylcholinesterase; 25 μM (footnote b)): 34.8%
CC(C)(C)c1ccc(C(=O)NP(N)(N)=O)cc1 [Test Compound 16]	46.3	97.9	3.1	38.7	
NP(N)(=O)NC(=O)c1ccccc1F [Test Compound 15]	97.4	99.3	14.7	82.1	
NP(N)(=O)NC(=O)C=Cc1ccccc1 [Test Compound 23]	11.5	73.2	6.6	54.8	
NP(N)(=O)NC(=O)c1cccc(F)c1 [Test Compound 13]	80.2	98.8	-4	41.3	
Nc1ccc(S(=O)(=O)Nc2cccc(C(=O)NP(N)(N)=O)c2)cc1 [Test Compound 25]	97.2	99	62.2	88.5	
NP(N)(=O)NC(=O)c1ccc([N+](=O)[O-])o1 [Test Compound 28]	21	90.8	46.9	93.1	
NP(N)(=O)NC(=O)c1ccccc1 [Test Compound 1]	92.7	99.1	4.1	37.3	
NP(N)(=O)NC(=O)c1cccc(Oc2ccccc2)c1 [Test Compound 19]	63.7	98.3	15.8	64.2	
NP(N)(=O)NC(=O)c1ccccc1Cl [Test Compound 11]	49.5	98.5	32.1	87.3	
NP(N)(=O)NC(=O)c1ccc(Cl)cc1 [Test Compound 6]	87.7	98.7	5.4	86.5	
Cc1ccccc1C(=O)NP(N)(N)=O [Test Compound 10]	21.4	89.2	8.6	44.5	
CC(C)NP(N)(=O)NC(=O)c1ccc(F)cc1 (stereo not drawn) [Test Compound 27, N-[amino-(1-methylethylamino)phosphinyl]-4-fluorobenzamide]					inhibition at 10 µM (pseudocholinesterase; 10 μM (footnote c)): 8.7%; inhibition at 100 µM (pseudocholinesterase; 100 μM (footnote c)): 43.3%; inhibition at 50 µM (acetylcholinesterase; 50 μM (footnote c)): 5.8%; inhibition at 500 µM (acetylcholinesterase; 500 μM (footnote c)): 32.2%
NP(N)(=O)NC(=O)c1cccc(C(F)(F)F)c1 [Test Compound 14]	25	94.1	25.7	85.9	
NP(N)(=O)NC(=O)c1cccnc1 [Test Compound 2]	84.1	97.6	-1.9	70.7	
COc1ccc(C(=O)NP(N)(N)=O)cc1 [Test Compound 8]	83.4	96.3	3	34.2	
CS(=O)(=O)c1ccc(C(=O)NP(N)(N)=O)cc1 [Test Compound 20, N-(diaminophosphinyl)-4-(methylsulfonyl)benzamide]	92.9	98.5	20.5	86.4	
Cc1ccc(C(=O)NP(N)(N)=O)cc1 [Test Compound 9]	73.7	98.1	9.6	46	
NP(N)(=O)NC(=O)Cc1ccccc1 [Test Compound 18]	10.7	61.3	17.1	85.2	
NP(N)(=O)NC(=O)c1ccco1 [Test Compound 26]	91	98.7	7.7	73	
NP(N)(=O)NC(=O)c1ccc([N+](=O)[O-])cc1 [Test Compound 3]	90.4	99	64.3	86.9	
CCCCOc1ccc(C(=O)NP(N)(N)=O)cc1 [Test Compound 22]	28.8	94.9	12.6	57.4	
NP(N)(=O)NC(=O)c1c(F)cccc1F [Test Compound 21]	74.4	98.7	51.1	93.7	
NP(N)(=O)NC(=O)c1ccc2ccccc2c1 [Test Compound 17]					inhibition at 0.5 µM (pseudocholinesterase; 0.5 μM (footnote a)): 27.4%; inhibition at 5 µM (pseudocholinesterase; 5.0 μM (footnote a)): 95.1%; inhibition at 5 µM (acetylcholinesterase; 5 μM (footnote a)): 16%; inhibition at 50 µM (acetylcholinesterase; 50 μM (footnote a)): 87.2%
